Experimental data reported in patent publication US20250051332A1 (priority 2022, published 2025).
Like-named read-outs stand apart in the source and are kept apart here.

Key:
κOR [1] = biological target: T1, κOR (Homo sapiens, UniProt P41145); experiment: cell-based; format: cell-based; conditions: for Emax: read-out: κOR cAMP inhibition Emax ± SEM (%)
T1 construct: host or cells: CHO-K1

μOR = biological target: T2, μOR (Homo sapiens, UniProt P35372); experiment: cell-based; format: cell-based; conditions: for Emax: read-out: μOR cAMP inhibition Emax ± SEM (%)
T2 construct: host or cells: CHO-K1
T2 sequence (P35372 whole entry): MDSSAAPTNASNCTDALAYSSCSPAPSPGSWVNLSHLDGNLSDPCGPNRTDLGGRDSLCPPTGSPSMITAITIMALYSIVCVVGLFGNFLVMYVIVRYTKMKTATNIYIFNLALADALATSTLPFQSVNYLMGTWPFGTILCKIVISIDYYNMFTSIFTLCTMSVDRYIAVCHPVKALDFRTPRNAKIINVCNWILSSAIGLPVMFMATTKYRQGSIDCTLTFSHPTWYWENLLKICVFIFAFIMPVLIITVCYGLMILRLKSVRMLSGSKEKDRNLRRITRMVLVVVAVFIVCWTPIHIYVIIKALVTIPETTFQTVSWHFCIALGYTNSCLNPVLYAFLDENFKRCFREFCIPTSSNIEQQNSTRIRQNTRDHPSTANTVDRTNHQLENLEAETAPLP

HERG = HERG (Homo sapiens, UniProt Q12809); conditions: data from reference 40; cited from earlier work
Sequence of HERG (Q12809 whole entry): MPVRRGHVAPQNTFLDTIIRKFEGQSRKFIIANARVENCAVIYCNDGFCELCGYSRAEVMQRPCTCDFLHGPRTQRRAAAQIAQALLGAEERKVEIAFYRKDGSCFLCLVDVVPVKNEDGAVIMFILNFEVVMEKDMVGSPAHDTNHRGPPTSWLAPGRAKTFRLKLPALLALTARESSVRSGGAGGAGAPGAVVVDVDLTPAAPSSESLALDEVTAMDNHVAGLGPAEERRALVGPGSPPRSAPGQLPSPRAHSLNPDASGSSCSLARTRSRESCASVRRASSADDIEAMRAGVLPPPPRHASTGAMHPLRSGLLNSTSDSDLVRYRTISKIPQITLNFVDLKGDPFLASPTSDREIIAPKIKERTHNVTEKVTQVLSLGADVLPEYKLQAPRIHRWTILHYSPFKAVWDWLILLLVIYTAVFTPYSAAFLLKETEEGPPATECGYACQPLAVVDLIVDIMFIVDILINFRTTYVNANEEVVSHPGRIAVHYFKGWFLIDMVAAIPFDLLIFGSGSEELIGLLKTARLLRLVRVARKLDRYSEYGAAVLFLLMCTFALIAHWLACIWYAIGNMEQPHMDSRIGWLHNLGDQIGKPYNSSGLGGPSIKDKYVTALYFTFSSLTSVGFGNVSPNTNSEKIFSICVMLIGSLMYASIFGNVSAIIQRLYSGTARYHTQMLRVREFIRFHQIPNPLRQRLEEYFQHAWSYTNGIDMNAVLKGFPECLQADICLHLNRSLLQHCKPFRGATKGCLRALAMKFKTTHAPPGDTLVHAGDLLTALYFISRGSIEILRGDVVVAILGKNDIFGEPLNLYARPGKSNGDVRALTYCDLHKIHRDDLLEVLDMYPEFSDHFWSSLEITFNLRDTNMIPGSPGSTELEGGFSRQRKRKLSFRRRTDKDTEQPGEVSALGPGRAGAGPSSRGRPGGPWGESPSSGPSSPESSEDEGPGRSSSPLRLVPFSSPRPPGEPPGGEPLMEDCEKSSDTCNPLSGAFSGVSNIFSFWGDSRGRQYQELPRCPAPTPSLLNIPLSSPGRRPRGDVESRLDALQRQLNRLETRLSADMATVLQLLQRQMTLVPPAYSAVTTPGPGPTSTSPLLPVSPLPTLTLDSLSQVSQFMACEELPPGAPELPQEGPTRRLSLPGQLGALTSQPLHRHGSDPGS

κOR [2] = biological target: T1, κOR; experiment: PathHunter β-arrestin-2 recruitment assay at the κOR; format: cell-based; conditions: FIG. 6
Excerpt: Cell Lines and Cell Culture. To perform the HitHunter cAMP accumulation assay, Chinese hamster ovary cells (CHO-K1) stably expressing human μ-opioid receptor (OPRM1, catalog no. 95-0107C2, DiscoverX, Fremont, CA, USA), K-opioid receptor (OPRK1, catalog no. 95-0088C2, DiscoverX, Fremont, CA, USA), or 6-opioid receptor (OPRD1, catalog no. 95-0108C2, DiscoverX, Fremont, CA, USA) were maintained at 80% confluence in F-12 media supplemented with 10% fetal bovine serum, 1% penicillin/streptomycin/L-glutamine, and 800 μg/mL G418. To perform the PathHunter β-arrestin-2 recruitment assay, U2OS-human κ opioid receptor (κOR) cells stably expressing the κOR and β-arrestin-2 (RRID:CVCL_LA97, DiscoverX, Fremont, CA, USA) were maintained in McCoy's 5A media supplemented with 10% FBS and containing 500 μg/mL geneticin and 250 μg/mL hygromycin. All cells were grown 37° C. under 5% CO2 in a humidified incubator under sterile conditions in T75 flasks. During passaging, cells were dislodged from the flask following a 3-5 min incubation with 0.25% trypsin or non-enzymatic detachment reagent and subcultivated at ratios of 1:10 (CHO) and 3:10 (U2OS).
PathHunter β-arrestin-2 Recruitment Assay. The R-arrestin-2 recruitment assay was performed using U2OS-human (κOR) PathHunter R-arrestin-2 cells (DiscoverX) as previously described.^77

320 non-olfactory GPCRs = experiment: PRESTO-Tango GPCRome screen of βArr2 recruitment; format: cell-based; conditions: 3 μM, FIG. 7
[3] = read-out: κOR cAMP inhibition EC50
[4] = read-out: μOR cAMP inhibition EC50

T1 sequence (P41145 whole entry): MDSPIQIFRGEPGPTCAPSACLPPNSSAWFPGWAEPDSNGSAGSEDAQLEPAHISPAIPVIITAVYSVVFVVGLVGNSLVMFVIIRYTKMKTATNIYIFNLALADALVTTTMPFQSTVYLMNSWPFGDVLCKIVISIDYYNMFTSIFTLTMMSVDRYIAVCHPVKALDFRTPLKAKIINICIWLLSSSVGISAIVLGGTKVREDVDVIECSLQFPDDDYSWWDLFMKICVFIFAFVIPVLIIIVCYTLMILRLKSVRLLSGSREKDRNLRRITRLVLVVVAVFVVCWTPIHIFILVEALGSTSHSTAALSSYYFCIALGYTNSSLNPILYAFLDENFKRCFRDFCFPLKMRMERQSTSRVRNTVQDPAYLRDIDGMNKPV

Compound | κOR cAMP inhibition pEC50 ± SEM (κOR [1]) | EC50 (κOR [1]; [3]) | μOR cAMP inhibition pEC50 ± SEM (μOR) | EC50 (μOR; [4]) | Emax (κOR [1]) | EC50 (μOR) | Emax (μOR) | EC50 (κOR [1]) | also measured
19-Hydroxyalstolucine [Compound 12] | — (key: — = no activity observed at 10 μM.) | > 10000 nM | — (key: — = no activity observed at 10 μM.) | > 10000 nM | – | – | – | – | agonist activity at the κOR (κOR [1]): no agonist activity; κOR cAMP inhibition Emax ± SEM (%) (κOR [1]): <10%; agonist activity at the μOR (μOR): no agonist activity; μOR cAMP inhibition Emax ± SEM (%) (μOR): <10%
C/C=C1/CN2CC[C@]34C(=C(C(=O)OC)[C@H]1C[C@H]23)Nc1ccccc14 [Compound 1, Akuammicine, reference compound] | – | – | – | – | 91 ± 7% | – | – | – | Ki (nM) at HERG (HERG): — (“—” indicates compound produced less than 50% displacement of radioligand in primary binding screen at 10 μM.)
C/C=C1/CN2CC[C@]34C(=C(C(=O)OC)[C@H]1C[C@H]23)Nc1ccc(-c2ccccc2)cc14 [Compound 4, 10-Phenylakuammicine] | 7.8 ± 0.1 | 15 nM | 6.1 ± 0.1 | 780 nM | 101 ± 2% | 720 to 840 nM | 106 ± 6% | – | –
C/C=C1/CN2CC[C@]34C(=C(C(=O)OC)[C@H]1C[C@H]23)Nc1ccc(-c2ccoc2)cc14 [Compound 5, 10-(3-Furanyl)akuammicine] | 9.1 ± 0.1 | 0.88 nM | 6.1 ± 0.2 | 720 nM | 102 ± 2% | 720 to 840 nM | 99 ± 12% | – | fold increase in κOR potency relative to 1 (κOR [1]): > 1,300; βArr2 recruitment compared with U50,488 (κOR [2]): significantly less recruitment of βArr2 than U50488 at concentrations <10 μM
C/C=C1/CN2CC[C@]34C(=C(C(=O)OC)[C@H]1C[C@H]23)Nc1ccc(-c2ccsc2)cc14 [Compound 6, 10-(3-Thienyl)akuammicine] | 8.1 ± 0.1 | 7.7 nM | 6.1 ± 0.1 | 840 nM | 104 ± 3% | 720 to 840 nM | 107 ± 3% | – | –
CC=C1CN2CCC34C(=C(C(=O)OC)C1CC23)Nc1ccc(C#N)cc14 (stereo not drawn) [Compound 7, 10-Cyanoakuammicine] | – | – | – | > 10000 nM | 102 ± 6% | > 10000 nM | < 10% | 81 nM | agonist activity at the μOR (μOR): without activating the μOR
CC=C1CN2CCC34C(=C(C(=O)OC)C1CC23)Nc1ccc([N+](=O)[O-])cc14 (stereo not drawn) [Compound 8, 10-Nitroakuammicine] | – | – | – | – | 96 ± 5% | 4000 nM | < 10% | 160 nM | Selectivity index = μOR EC50/κOR EC50 (κOR [1]): 25; βArr recruitment against GPCRome (320 non-olfactory GPCRs): induced recruitment of a number of non-opioid targets
COC(=O)C1=C2Nc3ccccc3[C@@]23CCN2C[C@@](O)([C@@H](C)O)[C@@H]1C[C@H]23 [Compound 10, 19R,20R-Dihydroxyakuammicine] | – | – | – | – | – | – | – | – | agonist activity at the κOR (κOR [1]): no agonist activity; agonist activity at the μOR (μOR): no agonist activity
CC[C@@H]1CN2CC[C@]34C(=C(C(=O)OC)[C@H]1C[C@H]23)Nc1ccccc14 [Compound 13, 19,20-dihydroakuammicine] | 5.8 ± 0.1 | 1600 nM | — (key: — = no activity observed at 10 μM.) | > 10000 nM | – | – | – | – | κOR cAMP inhibition Emax ± SEM (%) (κOR [1]): 99 ± 9%; μOR cAMP inhibition Emax ± SEM (%) (μOR): <10%
C/C=C1/CN2CC[C@]34c5ccccc5NC3C(C(=O)OC)[C@H]1C[C@H]24 (stereo partly drawn) [Compound 14, 2,16-dihydroakuammicine] | – | > 10000 nM | – | > 10000 nM | < 10% | > 10000 nM | < 10% | > 10000 nM | agonist activity at the κOR (κOR [1]): all κOR agonist activity is abolished or significantly diminished
CCC1CN2CCC34c5ccccc5NC3C(C(=O)OC)C1CC24 (stereo not drawn) [Compound 15, 2,16,19,20-tetrahydroakuammicine] | – | > 10000 nM | – | > 10000 nM | < 10% | > 10000 nM | < 10% | > 10000 nM | agonist activity at the κOR (κOR [1]): all κOR agonist activity is abolished or significantly diminished
C/C=C1/C[N+]2(C)CC[C@]34C(=C(C(=O)OC)[C@H]1C[C@@H]32)Nc1ccccc14 (stereo partly drawn) [Compound 16, N-4-Methylakuammicine] | – | – | – | – | < 10% | – | < 10% | – | –
C=CC[N+]12CCC34C(=C(C(=O)OC)C(CC31)C(=CC)C2)Nc1ccccc14 (stereo not drawn) [Compound 17, N-4-Allylakuammicine] | – | > 10000 nM | – | > 10000 nM | < 10% | > 10000 nM | < 10% | > 10000 nM | –
C/C=C1/C[N+]2(CCC)CC[C@]34C(=C(C(=O)OC)[C@H]1C[C@@H]32)Nc1ccccc14 (stereo partly drawn) [Compound 18, N-4-Propylakuammicine] | – | – | – | – | < 10% | – | < 10% | – | –
CC=C1C[N+]2(CC3CC3)CCC34C(=C(C(=O)OC)C1CC32)Nc1ccccc14 (stereo not drawn) [Compound 19, N-4-Cyclopropylmethylakuammicine] | – | – | – | > 10000 nM | 113 ± 24% | > 10000 nM | < 10% | 4700 nM | fold reduced κOR potency compared to 1 (κOR [1]): about 4 fold
C/C=C1/C[N+]2(Cc3ccccc3)CC[C@]34C(=C(C(=O)OC)[C@H]1C[C@@H]32)Nc1ccccc14 (stereo partly drawn) [Compound 20, N-4-Benzylakuammicine] | – | – | 5.6 ± 0.1 | 2300 nM | < 10% | – | 112 ± 6% | – | –
C/C=C1/CN2CC[C@]34c5cc(Br)ccc5NC3C(C(=O)OC)[C@H]1C[C@H]24 (stereo partly drawn) [Compound 21, 10-Bromo-2,16-dihydroakuammicine] | 7.3 ± 0.1 | 47 nM | – | – | 100 ± 4% | – | – | – | –
CC=C1CN2CCC34c5cc(I)ccc5NC3C(C(=O)OC)C1CC24 (stereo not drawn) [Compound 22, 10-Iodo-2,16-dihydroakuammicine] | – | – | – | > 10000 nM | – | > 10000 nM | – | 24 nM | –
CC=C1C[N+]2(C)CCC34C(=C(C(=O)OC)C1CC32)Nc1ccc(Br)cc14 (stereo not drawn) [Compound 23, 10-Bromo-N-4-methylakuammicine] | – | – | – | > 10000 nM | 102 ± 7% | > 10000 nM | < 10% | 940 nM | –
C=CC[N+]12CCC34C(=C(C(=O)OC)C(CC31)C(=CC)C2)Nc1ccc(Br)cc14 (stereo not drawn) [Compound 24, 10-Bromo-N-4-allylakuammicine] | – | – | – | > 10000 nM | 100 ± 7% | > 10000 nM | < 10% | 650 nM | –
C/C=C1/C[N+]2(CC3CC3)CC[C@]34C(=C(C(=O)OC)[C@H]1C[C@@H]32)Nc1ccc(Br)cc14 (stereo partly drawn) [Compound 25, 10-Bromo-N-4-cyclopropylmethylakuammicine] | 6.7 ± 0.1 | 210 nM | – | – | 94 ± 5% | – | < 10% | – | –
CCC1CN2CCC34C(=C(C(=O)OC)C1CC23)Nc1ccc(Br)cc14 (stereo not drawn) [Compound 27, 10-Bromo-19,20-dihydroakuammicine] | 7.5 ± 0.1 | 31 nM | 6.0 ± 0.1 | 1100 nM | 100 ± 5% | – | 107 ± 5% | – | Selectivity index = μOR EC50/κOR EC50 (κOR [1]): 35
